# Source: patent US9714424B1, “RNAi inhibition of USP10 to treat ocular disorders” (ICAHN SCHOOL OF MEDICINE AT MOUNT SINAI, priority 2014, dated 2017)
# What was measured:
# USP10 expression = assay: USP10 protein expression in HCFs treated with TGFβ or TGFβ inhibitor; format: cell-based, human
# Description: Porcine corneas with scleral rims were mounted on an agarose/collagen base without wounding (control corneas) or after wounding through the anterior stroma with a trephine (wounded corneas). A-H immunostaining of paraffin embedded corneal slices comparing control to 2 weeks post-wounding. Compared to control fibrotic markers increased in the anterior stroma after wounding: (A, B) α-SMA 2.9-fold+/−0.8 ***p<0.005, (C) No primary antibody control, (D, E) USP10 2.5-fold+/−0.8 **p<0.01, and F) Pre-incubation with a USP10 blocking peptide reduced immunostaining. Bar=50 um. (G) Western blot of human and porcine primary epithelial cells (Epi) and stromal cells (Fibro).
# Since TGFβ plays an important role in all wounding and fibrotic disease, we tested if TGFβ induced the expression of USP10. In the remaining cell culture studies unless otherwise noted, fibroblasts that have been passaged in serum-containing media are detached and plated on type I collagen in supplemented-serum free media (SSFM). In FIG. 4H, primary human corneal fibroblasts (HCFs) were treated with 1 ng/ml TGFβ for 2 days. TGFβ increased USP10 expression by 57% as compared to no treatment.
# [1] = system: αv integrins αvβ1, β3, β5; assay: TGFβ activity assay, htert-SMAD reporter cells co-cultured with htert-USP10 cells, αv integrin blocking; format: cell-based, human; details: 100 nM, compared to control small molecule CWHM96
# Protocol: TGFβ activity was measured using cell lines constitutively expressing pGreenFire Lenti-Reporter (System Biosciences) a reporter for SMAD activation. This reporter was used to generate TGFβ reporter cell lines with htert fibroblasts (htert-SMAD) and 293t cells (293t-SMAD). To assess TGFβ activity with USP10 overexpression, 50K Htert-SMAD cells were co-cultured with 50K cells constitutively overexpressing USP10 (htert-USP10) or control cells (htert cells expressing empty vector, htert-vector cells). After 24 hours, cells were removed with trypsin, pelleted, re-suspended in luciferase reagent, placed in wells in triplicate, and assayed for luciferase expression. To assess TGFβ activity when USP10 was silenced, USP10 and control siRNA were transiently transfected in 293t-SMAD cells and assayed as above. To assess TGFβ activity when av integrins were blocked, USP10 cells were treated with intergrin αv blocking small molecule or matched control small molecule and assayed as above.
# It was previously reported that integrin αvβ5 directly activates TGFβ in myofibroblasts. […] First we confirmed that the htert-HCF line had low (undetectable) endogenous TGFβ activity so that the induction of TGFβ activity by USP10 could be quantified (data not shown). […] The next day, cells were lysed and luciferase substrate (Brightglo) was added prior to quantification of luciferase activity in each sample. […]
compound,measurement,setting,value
"TGFβ: fibrotic growth factor, added at 1 ng/ml to HCFs","USP10 expression, increase","USP10 expression; 1 ng/ml for 2 days, compared to no treatment",57%
CC(C)(C)c1cc(Br)cc([C@H](CC(=O)O)NC(=O)CNC(=O)c2cc(O)cc(NC3=NCC(O)CN3)c2)c1 (stereo partly drawn) [CWHM12],"USP10-mediated TGFβ activity, reduction",[1],63%+/−6%
NC(=O)c1ccc(-c2nc(-c3ccc4c(c3)OCO4)c(-c3ccccn3)[nH]2)cc1 [SB431542],"USP10 expression, decrease",USP10 expression; blocking TGFβ-induced SMAD2/3 signaling,44%
